# Entries after “also recorded” stand apart in the source; their conditions may differ.
# What was measured:
# Bacillus subtilis 168 = test: Disk diffusion antimicrobial activity assay, Bacillus subtilis 168; type: cell-based; conditions: paper disk, 25 μL of 2 μg/μL in chloroform (lugdunomycin: 10 μL of 1 μg/μL in methanol), 37° C., 18 h, FIG. 6 A
# Description: (§1) Streptomyces sp. QL37 was isolated from soil in the Qinling mountains (P. R. China) soil as described previously (Zhu et al, 2014b). The previously undescribed strain was deposited to the collection of the Centraal Bureau voor Schimmelcultures (CBS) in Utrecht, The Netherlands. Streptomyces sp. QL37 was cultivated on Minimal Medium agar plates (MM) (Kieser et al., 2000) with 0.5% glycerol and 1% mannitol (w/v) as the carbon sources, on R5 agar supplemented with 0.8% peptone and 1% mannitol (w/v), or to prepare spore suspensions on SFM agar plates (Soy flour man nitol; (Kieser et al., 2000)). Square agar plates (12 cm×12 cm) were inoculated with 1×10^7 spores from a fresh spore suspension. As indicator strains for the antibacterial assays we used B. subtilis 168 and E. coli JM109 (Sambrook et al., 1989).
# (§2) Antimicrobial activity was determined using a disk diffusion assay. For this, compounds were dissolved in chloroform to a concentration of (2 μg/μL) and of this solution, 25 μL was applied on a paper disk (GE Healthcare Bio-Sciences, Pittsburgh), except for lugdunomycin, for which 10 μL of a 1 μg/μL solution in methanol was used. […] After incubation at 37° C. for 18 h, growth inhibition zones (in mm) were recorded as antimicrobial activity.
# Escherichia coli JM109 = test: Disk diffusion antimicrobial activity assay, Escherichia coli JM109; type: cell-based; conditions: paper disk, 25 μL of 2 μg/μL in chloroform (lugdunomycin: 10 μL of 1 μg/μL in methanol); 37° C., 18 h; FIG. 6 B, D
# Description: as §1, §2
compound,measurement,setting,value
"COc1cccc2c1[C@@H](O)[C@]13C[C@@H](O)C[C@]1(C(=O)NC3=O)[C@]21Oc2cc(C)cc3ccc(O)c1c23 [Lugdunomycin (1), lugdunomycin]",antimicrobial activity (growth inhibition) against Gram-positive Bacillus subtilis,Bacillus subtilis 168,showed inhibition efficacy; also recorded: showed antimicrobial activity
same,antimicrobial activity (growth inhibition) against Gram-negative Escherichia coli JM109,Escherichia coli JM109,not against

# From patent publication US10696685B2, “Polyketides, methods of use and preparation” (Universiteit Leiden, priority 2015, dated 2020)
